Experimental data from US10272135B2, “Apolipoprotein O and fragments thereof for inducing apoptosis in a cancerous cell” (INSERM (INSTITUT NATIONAL DE LA SANTÉ ET DE LA RECHERCHE …, priority 2014, dated 2019).

What was measured:
Type in all cases: cell-based
H9c2 cardiac myoblasts [1] = assay: Measurement of O2 consumption (Oroboros Oxygraph-2k) in cardiac myoblasts; conditions: for oxygen consumption: cells treated with 1 μM antimycin or 1.5 μg/ml oligomycin (FIG. 4B)
From the text: After ethical committee approval, all patients in this study gave written consent for sample collection and molecular analysis prior to inclusion. Patients were carefully selected by physicians from the Department of Cardiology, Toulouse University Hospital, prior to coronary by-pass surgery. Bioinformatics. Microarray expression data from human heart samples were downloaded from the GEO repository (GSE1145). This series consisted of 107 myocardial samples collected from patients undergoing cardiac transplantation whose failure arises from different etiologies (e.g. idiopathic dilated cardiomyopathy, ischemic cardiomyopathy, valvular cardiomyopathy, and hypertrophic cardiomyopathy) and from “normal” organ donors whose hearts cannot be used for transplants. Arrays were intensity normalized and hierarchical clustering (average group linkage, Pearson correlation, threshold r=0.8) was applied to identify groups of co-expressed genes. ApoO expression levels were plotted for the 107 human hearts tested and used to define relevant molecular pathways using both Toppgene and Ingenuity Pathway Analysis (Ingenuity systems, Redwood City, Calif., USA). ApoO subcellular localization was predicted using Mitopred, mitoprot and YLoc. Animals: All animal Studies followed the INSERM Institute Animal Facility guidelines and were approved by the animal care committees of the INSERM I2MC UMR 1048. All animal procedures were performed according to the guidelines of the French Ministry of Agriculture. Animals were housed at the Toulouse I2MC animal facility in a room lit 12 h per day (6 AM-6 PM) at an ambient temperature of 22+/−1° C. Construction of ApoO Expression Vectors To overexpress human ApoO (pTT-ApoO), the ApoO coding sequence was amplified using primers hApoO5BamPTT (SEQ ID NO: 2) and hApoO3BamPTT (SEQ ID NO: 3) and cloned into the BamH1 site of pTT expression vector. pSNAP-ApoO was generated by PCR amplification of pTT-ApoO using primers SnapApoEcorV-F (SEQ ID NO: 4) and SnapApoEcorV-R (SEQ ID NO: 5) and cloned into the EcoRV site of pSNAP-Tag® (Ozyme, Saint-Quentin-en-Yvelines, France). pGEX2T-ApoO was constructed by PCR amplification of pTT-ApoO using hApoOpGEX1FBam (SEQ ID NO: 6) and hApoOpGEX1RSma (SEQ ID NO: 7) and cloned into the Bam HI/Sma I site of pGEX2T (Promega, Charbonnières-les-Bains). All primers used in this work were synthesized by Eurogentec France (Angers). All restriction enzymes used were from New England Biolabs (Ozyme, Saint-Quentin-en-Yvelines). All ApoO sequences within the expression vectors were verified by DNA double strand sequencing using ABI PRISM®BigDye™ Terminator version 3.1 Ready reaction cycle sequencing kit (Life Technologies SAS, Villebon sur Yvette) and loaded on an ABI 3130XL DNA sequencing instrument (Life Technologies SAS, Villebon sur Yvette). Cell Culture and Tranfection of H9C2 Cardic Myoblasts H9c2 were obtained from the European Collection of Cell Cultures (Salisbury, England). H9c2 cells were cultured in Dulbecco's modified Eagle medium (Life Technologies SAS, Villebon sur Yvette) adjusted to contain 1.5 g/liter sodium bicarbonate and supplemented with antibiotic-antimycotic solution (Life Technologies SAS, Villebon sur Yvette) and 10% fetal bovine serum (FBS, AbCys s.a., Paris). Cells were plated on 10-cm diameter tissue culture dish and grown in a 5% CO2 incubator at 37° C. with saturating humidity with medium changes every 2 days. […]

Caspase-3 = Caspase-3 enzymatic activity in H9c2 cardiac myoblasts; conditions: ApoO cells treated with both palmitate and oleate (FIG. 11c)
From the text: (§1) After ethical committee approval, all patients in this study gave written consent for sample collection and molecular analysis prior to inclusion. Patients were carefully selected by physicians from the Department of Cardiology, Toulouse University Hospital, prior to coronary by-pass surgery. Bioinformatics. Microarray expression data from human heart samples were downloaded from the GEO repository (GSE1145). This series consisted of 107 myocardial samples collected from patients undergoing cardiac transplantation whose failure arises from different etiologies (e.g. idiopathic dilated cardiomyopathy, ischemic cardiomyopathy, valvular cardiomyopathy, and hypertrophic cardiomyopathy) and from “normal” organ donors whose hearts cannot be used for transplants. Arrays were intensity normalized and hierarchical clustering (average group linkage, Pearson correlation, threshold r=0.8) was applied to identify groups of co-expressed genes. ApoO expression levels were plotted for the 107 human hearts tested and used to define relevant molecular pathways using both Toppgene and Ingenuity Pathway Analysis (Ingenuity systems, Redwood City, Calif., USA). ApoO subcellular localization was predicted using Mitopred, mitoprot and YLoc. Animals: All animal Studies followed the INSERM Institute Animal Facility guidelines and were approved by the animal care committees of the INSERM I2MC UMR 1048. All animal procedures were performed according to the guidelines of the French Ministry of Agriculture. Animals were housed at the Toulouse I2MC animal facility in a room lit 12 h per day (6 AM-6 PM) at an ambient temperature of 22+/−1° C. […] All ApoO sequences within the expression vectors were verified by DNA double strand sequencing using ABI PRISM®BigDye™ Terminator version 3.1 Ready reaction cycle sequencing kit (Life Technologies SAS, Villebon sur Yvette) and loaded on an ABI 3130XL DNA sequencing instrument (Life Technologies SAS, Villebon sur Yvette). […]

H9c2 cardiac myoblasts [2] = assay: Lipid profiling (FAME, diglycerides, triglycerides, BODIPY-palmitate) in cardiac myoblasts; conditions: ApoO cells treated with both palmitate and oleate (FIG. 11a-b)
From the text: as §1

[3] = tested on: long-chain acyl-CoA synthetase (ACSL); assay: Acyl-CoA synthetase activity in cardiac myoblasts; conditions: ApoO cells treated with 5 μM triacsin C
From the text: After ethical committee approval, all patients in this study gave written consent for sample collection and molecular analysis prior to inclusion. Patients were carefully selected by physicians from the Department of Cardiology, Toulouse University Hospital, prior to coronary by-pass surgery. Bioinformatics. Microarray expression data from human heart samples were downloaded from the GEO repository (GSE1145). This series consisted of 107 myocardial samples collected from patients undergoing cardiac transplantation whose failure arises from different etiologies (e.g. idiopathic dilated cardiomyopathy, ischemic cardiomyopathy, valvular cardiomyopathy, and hypertrophic cardiomyopathy) and from “normal” organ donors whose hearts cannot be used for transplants. Arrays were intensity normalized and hierarchical clustering (average group linkage, Pearson correlation, threshold r=0.8) was applied to identify groups of co-expressed genes. […] All ApoO sequences within the expression vectors were verified by DNA double strand sequencing using ABI PRISM®BigDye™ Terminator version 3.1 Ready reaction cycle sequencing kit (Life Technologies SAS, Villebon sur Yvette) and loaded on an ABI 3130XL DNA sequencing instrument (Life Technologies SAS, Villebon sur Yvette). […]

N#CC(C#N)=NNc1cccc(Cl)c1 [CCCP, carbonyl cyanide m-chlorophenyl hydrazone]
increase in oxygen consumption (H9c2 cardiac myoblasts [1]; ApoO cells, addition of uncoupler 2 μM CCCP (FIG. 4B)): 2 fold

CCCCCCCC/C=C\CCCCCCCC(=O)O [oleate, reference compound]
decrease in Caspase-3 activity (Caspase-3): 2 fold
decrease in diglyceride/triglyceride ratio (H9c2 cardiac myoblasts [2]): 12 fold

CC[C@H]1/C=C/C=C/C[C@@H](C)[C@H](O)[C@@](C)(O)C(=O)[C@@H](C)[C@H](O)[C@@H](C)C(=O)[C@@H](C)[C@H](O)[C@@H](C)/C=C/C(=O)O[C@@H]2[C@H](C)[C@H](CC1)O[C@]1(CC[C@H](C)[C@H](C[C@@H](C)O)O1)[C@H]2C [oligomycin]
oxygen consumption (H9c2 cardiac myoblasts [1]): partly inhibited

CCC/C=C/C/C=C/C=C/C=N/NN=O [triacsin C, reference compound]
ApoO-induced increase of ACSL activity [3]: significantly reversed

antimycin
oxygen consumption (H9c2 cardiac myoblasts [1]): almost completely inhibited
